Reference: patent US12528814B2, “Bifunctional degraders of interleukin-1 receptor-associated kinases and therapeutic use thereof” (NURIX THERAPEUTICS, INC., priority 2020, dated 2026)
Like-named read-outs stand apart in the source and are kept apart here.

How the values were obtained:
[1] = biological target: T1, IRAK4 (Homo sapiens (Human), UniProt Q9NWZ3); assay: IRAK4 Biochemical HTRF Kinase Assay; settings: read-out: IRAK4 HTRF biochemical: IC50
Description: IRAK4 Biochemical HTRF Kinase Assay
The binding capacities of certain bifunctional compounds of Formula (I) were determined using the CisBio HTRF KinEASE STK S1 Kit (#62ST1PEB, contains 5× Kinase buffer, 1× Detection Buffer, anti-phospho-serine/threonine-cryptate, Streptavidin-XL665, and STK-S1), which measures the phosphorylation of a biotinylated peptide substrate by IRAK4, according to the manufacturer's protocol. […] 2 μl of a reaction solution containing 5 μM STK-S1, 10 mM ATP, and 10 mM MgCl2 were added to each well to a final volume of 10 μl. Assay controls include wells containing kinase with no compound (DMSO only) and wells containing no kinase and no compound (DMSO only). The reactions were allowed to proceed at ambient temperature for 90 minutes. […] The plates were incubated for 60 minutes at ambient temperature and then read on an Envision Multilabel Reader (PerkinElmer). […] For IC50 determination, the compounds were tested at sixteen concentrations in duplicate and curve-fitting was performed by non-linear regression analysis using GraphPad Priam.
Target sequence in this assay (Q9NWZ3 whole entry, species assumed): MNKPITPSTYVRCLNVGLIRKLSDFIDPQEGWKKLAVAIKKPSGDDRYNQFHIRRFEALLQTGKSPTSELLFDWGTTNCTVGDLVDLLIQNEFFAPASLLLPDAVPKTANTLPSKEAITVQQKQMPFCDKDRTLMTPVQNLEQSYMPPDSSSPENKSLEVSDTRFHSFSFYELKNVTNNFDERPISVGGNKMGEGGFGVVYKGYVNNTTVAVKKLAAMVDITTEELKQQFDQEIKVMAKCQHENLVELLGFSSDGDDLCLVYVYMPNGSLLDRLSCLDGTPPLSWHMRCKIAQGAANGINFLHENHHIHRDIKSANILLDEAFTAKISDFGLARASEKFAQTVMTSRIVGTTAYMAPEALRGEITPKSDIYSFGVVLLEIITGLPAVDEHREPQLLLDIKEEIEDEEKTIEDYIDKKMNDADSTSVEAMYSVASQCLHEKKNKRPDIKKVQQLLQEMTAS

[2] = biological target: T1, IRAK4; assay: IRAK4 Degradation HiBiT Assay; settings: HiBiT-tagged Jurkat cells, 4 hrs; for Dmax: Jurkat; for DC50: read-out: Cellular IRAK4 HiBiT: DC50
Target sequence in this assay (Q9NWZ3 whole entry): as the sequence (Q9NWZ3 whole entry, species assumed) above

[3] = read-out: Cellular IRAK4 HiBiT: Dmax, Table 4
[4] = read-out: Cellular IRAK4 HiBiT: Dmax, Table 5, multiple runs

Row | Compound | IC50 ([1]; Table 4) | IC50 ([1]; Table 5, multiple runs) | Dmax [2, 3] | Dmax [2, 4] | DC50 ([2]; Table 4) | DC50 ([2]; Table 5, multiple runs)
1 | CC(C)Nc1cc(-c2ccc3cc(C#N)cnn23)ncc1-c1nnc(N2CCN(CCC3CCN(c4ccc5c(c4)C(=O)N(C4CCC(=O)NC4=O)C5=O)CC3)CC2)s1 (stereo not drawn) [Example 16, 7-(5-(5-(4-(2-(1-(2-(2,6-dioxopiperidin-3-yl)-1,3-dioxoisoindolin-5-yl)piperidin-4-yl)ethyl)piperazin-1-yl)-1,3,4-thiadiazol-2-yl)-4-(isopropylamino)pyridin-2-yl)pyrrolo[1,2-b]pyridazine-3-carbonitrile] | 1.7 nM | 1.7 nM | 62% | 53% | 127 nM | 190 nM
2 | CC(C)Nc1cc(-c2ccc3cc(C#N)cnn23)ncc1-c1nnc(N2CCN(C3CCN(C[C@H]4CCN(c5ccc6c(c5)C(=O)N(C5CCC(=O)NC5=O)C6=O)C4)CC3)CC2)s1 (stereo partly drawn) [Example 17, 7-(5-(5-(4-(1-(((3R)-1-(2-(2,6-dioxopiperidin-3-yl)-1,3-dioxoisoindolin-5-yl)pyrrolidin-3-yl)methyl)piperidin-4-yl)piperazin-1-yl)-1,3,4-thiadiazol-2-yl)-4-(isopropylamino)pyridin-2-yl)pyrrolo[1,2-b]pyridazine-3-carbonitrile] | 1.4 nM | 1.4 nM | 69% | 77% | 139 nM | 168 nM
3 | CC(C)Nc1cc(-c2ccc3cc(C#N)cnn23)ncc1-c1nnc(N2CCN(C3CCN(Cc4ccc5c(c4)C(=O)N(C4CCC(=O)NC4=O)C5=O)CC3)CC2)s1 (stereo not drawn) [Example 18, 7-(5-(5-(4-(1-((2-(2,6-dioxopiperidin-3-yl)-1,3-dioxoisoindolin-5-yl)methyl)piperidin-4-yl)piperazin-1-yl)-1,3,4-thiadiazol-2-yl)-4-(isopropylamino)pyridin-2-yl)pyrrolo[1,2-b]pyridazine-3-carbonitrile] | 1.9 nM | 1.9 nM | 88% | 87% | 123 nM | 113 nM
4 | CC(C)Nc1cc(-c2ccc3cc(C#N)cnn23)ncc1-c1nnc(N2CCN(C[C@H]3CCN(c4ccc5c(c4)C(=O)N(C4CCC(=O)NC4=O)C5=O)C3)CC2)s1 (stereo partly drawn) [Example 19, 77-(5-(5-(4-(((3R)-1-(2-(2,6-dioxopiperidin-3-yl)-1,3-dioxoisoindolin-5-yl)pyrrolidin-3-yl)methyl)piperazin-1-yl)-1,3,4-thiadiazol-2-yl)-4-(isopropylamino)pyridin-2-yl)pyrrolo[1,2-b]pyridazine-3-carbonitrile] | 2.2 nM | 2.2 nM | 79% | 67% | 90.1 nM | 90.6 nM
5 | CC(C)Nc1cc(-c2ccc3cc(C#N)cnn23)ncc1-c1nnc(N2CCN(Cc3ccc4c(c3)C(=O)N(C3CCC(=O)NC3=O)C4=O)CC2)s1 (stereo not drawn) [Example 20, 7-(5-(5-(4-((2-(2,6-dioxopiperidin-3-yl)-1,3-dioxoisoindolin-5-yl)methyl)piperazin-1-yl)-1,3,4-thiadiazol-2-yl)-4-(isopropylamino)pyridin-2-yl)pyrrolo[1,2-b]pyridazine-3-carbonitrile] | 2 nM | 2 nM | 29% | 29% | 654 nM | 660 nM
6 | CC(C)Nc1cc(-c2ccc3cc(C#N)cnn23)ncc1-c1nnc(N2CCN(C(=O)C3CCN(CC4CCN(c5ccc6c(=O)n(C7CCC(=O)NC7=O)ccc6c5)CC4)CC3)CC2)s1 (stereo not drawn) [Example 21, 7-(5-(5-(4-(1-((1-(2-(2,6-dioxopiperidin-3-yl)-1-oxo-1,2-dihydroisoquinolin-6-yl)piperidin-4-yl)methyl)piperidine-4-carbonyl)piperazin-1-yl)-1,3,4-thiadiazol-2-yl)-4-(isopropylamino)pyridin-2-yl)pyrrolo[1,2-b]pyridazine-3-carbonitrile] | 0.5 nM | 0.5 nM | 103% | 101% | 251 nM | 251 nM
7 | CC(C)Nc1cc(-c2ccc3cc(C#N)cnn23)ncc1-c1nnc(N2CCC(NCC3CCN(c4ccc5c(c4)C(=O)N(C4CCC(=O)NC4=O)C5=O)CC3)CC2)s1 (stereo not drawn) [Example 22, 7-[5-(5-{4-[({1-[2-(2,6-dioxopiperidin-3-yl)-1,3-dioxo-2,3-dihydro-1H-isoindol-5-yl]piperidin-4-yl}methyl)amino]piperidin-1-yl}-1,3,4-thiadiazol-2-yl)-4-[(propan-2-yl)amino]pyridin-2-yl]pyrrolo[1,2-b]pyridazine-3-carbonitrile] | 0.8 nM | 0.8 nM | 96% | 99% | 232 nM | 231 nM
8 | CC(C)Nc1cc(-c2ccc3cc(C#N)cnn23)ncc1-c1nnc(N2CCN(C(=O)C3CCN(c4ccc5c(c4)C(=O)N(C4CCC(=O)NC4=O)C5=O)CC3)CC2)s1 (stereo not drawn) [Example 23, 7-{5-[5-(4-{1-[2-(2,6-dioxopiperidin-3-yl)-1,3-dioxo-2,3-dihydro-1H-isoindol-5-yl]piperidine-4-carbonyl}piperazin-1-yl)-1,3,4-thiadiazol-2-yl]-4-[(propan-2-yl)amino]pyridin-2-yl}pyrrolo[1,2-b]pyridazine-3-carbonitrile] | 1.5 nM | 1.5 nM | 97% | 108% | 184 nM | 57 nM
9 | CC(C)Nc1cc(-c2ccc3cc(C#N)cnn23)ncc1-c1nnc(N2CCC(NC(=O)C3CCN(c4ccc5c(c4)C(=O)N(C4CCC(=O)NC4=O)C5=O)CC3)CC2)s1 (stereo not drawn) [Example 25, N-(1-(5-(6-(3-cyanopyrrolo[1,2-b]pyridazin-7-yl)-4-(isopropylamino)pyridin-3-yl)-1,3,4-thiadiazol-2-yl)piperidin-4-yl)-1-(2-(2,6-dioxopiperidin-3-yl)-1,3-dioxoisoindolin-5-yl)piperidine-4-carboxamide] | 7.8 nM | 7.8 nM | 69% | 77% | 188 nM | 160 nM
10 | CC(C)Nc1cc(-c2ccc3cc(C#N)cnn23)ncc1-c1nnc(N2CCN(CCCCc3ccc4c(c3)CN(C3CCC(=O)NC3=O)C4=O)CC2)s1 (stereo not drawn) [Example 26, 7-(5-(5-(4-(4-(2-(2,6-dioxopiperidin-3-yl)-1-oxoisoindolin-5-yl)butyl)piperazin-1-yl)-1,3,4-thiadiazol-2-yl)-4-(isopropylamino)pyridin-2-yl)pyrrolo[1,2-b]pyridazine-3-carbonitrile] | 0.9 nM | 0.9 nM | 87% | 87% | 94.2 nM | 94.1 nM

More lines, now with the values ahead:

Row | IC50 ([1]; Table 4) | IC50 ([1]; Table 5, multiple runs) | Dmax [2, 3] | Dmax [2, 4] | DC50 ([2]; Table 4) | DC50 ([2]; Table 5, multiple runs) | Compound
11 | 0.3 nM | 1.2 nM | 57% | 57% | 70.6 nM | 70.7 nM | CC(C)Nc1cc(-c2ccc3cc(C#N)cnn23)ncc1-c1nnc(N2CCN(CCCc3ccc4c(c3)CN(C3CCC(=O)NC3=O)C4=O)CC2)s1 (stereo not drawn) [Example 27, 7-(5-(5-(4-(3-(2-(2,6-dioxopiperidin-3-yl)-1-oxoisoindolin-5-yl)propyl)piperazin-1-yl)-1,3,4-thiadiazol-2-yl)-4-(isopropylamino)pyridin-2-yl)pyrrolo[1,2-b]pyridazine-3-carbonitrile]
12 | 0.4 nM | 0.5 nM | 70% | 70% | 53 nM | 53.1 nM | CC(C)Nc1cc(-c2ccc3cc(C#N)cnn23)ncc1-c1nnc(N2CCN(CCCCc3cccc4c3CN(C3CCC(=O)NC3=O)C4=O)CC2)s1 (stereo not drawn) [Example 28, 7-(5-(5-(4-(4-(2-(2,6-dioxopiperidin-3-yl)-1-oxoisoindolin-4-yl)butyl)piperazin-1-yl)-1,3,4-thiadiazol-2-yl)-4-(isopropylamino)pyridin-2-yl)pyrrolo[1,2-b]pyridazine-3-carbonitrile]
13 | 0.8 nM | 1.1 nM | 90% | 90% | 135 nM | 136 nM | CC(C)Nc1cc(-c2ccc3cc(C#N)cnn23)ncc1-c1nnc(N2CCN(CCCc3cccc4c3CN(C3CCC(=O)NC3=O)C4=O)CC2)s1 (stereo not drawn) [Example 29, 7-(5-(5-(4-(3-(2-(2,6-dioxopiperidin-3-yl)-1-oxoisoindolin-4-yl)propyl)piperazin-1-yl)-1,3,4-thiadiazol-2-yl)-4-(isopropylamino)pyridin-2-yl)pyrrolo[1,2-b]pyridazine-3-carbonitrile]
14 | 0.9 nM | 1.1 nM | 95% | 95% | 73.4 nM | 73.5 nM | CC(C)Nc1cc(-c2ccc3cc(C#N)cnn23)ncc1-c1nnc(N2CCC(NC(=O)C3CCN(Cc4ccc5c(c4)C(=O)N(C4CCC(=O)NC4=O)C5=O)CC3)CC2)s1 (stereo not drawn) [Example 30, N-(1-(5-(6-(3-cyanopyrrolo[1,2-b]pyridazin-7-yl)-4-(isopropylamino)pyridin-3-yl)-1,3,4-thiadiazol-2-yl)piperidin-4-yl)-1-((2-(2,6-dioxopiperidin-3-yl)-1,3-dioxoisoindolin-5-yl)methyl)piperidine-4-carboxamide]
